Test results reported in patent publication US20080038276A1, “INHIBITORS OF PLASMA KALLIKREIN” (Activesite Pharmaceuticals, Inc., priority 2006, published 2008).
Like-named read-outs stand apart in the source and are kept apart here.

Legend:
[1] = target: T1, Human plasma kallikrein (PK) (Homo sapiens, UniProt P03952); test: Inhibition of human plasma kallikrein amidolytic activity (H-D-Pro-Phe-Arg-pNA cleavage, A405); type: biochemical
T1 construct: purchased Haemtech Technologies (Essex Junction, Vt.)
Method: Human plasma kallikrein (PK) was obtained from Haemtech Technologies (Essex Junction, Vt.). The enzymatic activity of PK was assayed using the synthetic peptide substrate H-D-Pro-Phe-Arg-pNA (Bachem, Inc., Switzerland) with the cleavage of the substrate by the enzyme resulting in an increase in A405, measured using a Molecular Devices Vmax Kinetic Microplate Reader. The uninhibited (control) activity of PK was determined by adding 190 μl of PK solution (1 nM in 0.05 M HEPES, pH 7.5, 0.01% Triton X-100) to 10 μl of H-D-Pro-Phe-Arg-pNA (2 mM in DMSO) in individual microtiter plate wells, mixed immediately by shaking, and the rate of increase in A405 determined over 120-180 sec. In parallel, compounds of the present invention were mixed in separate wells with the synthetic substrate to attain final concentrations of between 0.01-10 μM in the final 200 μl reaction mixture, and the reaction initiated by the addition of 190 μl of the PK solution.
(§1) The highest concentration of either compound tested was 10 μM.

[2] = test system: plasmin-activated coagulation in plasma; test: Plasmin-activated coagulation of plasma (plasmin + 6.25% Actin FS), time to coagulation; parameters: species or system human; conditions: for prolongs time to coagulation: normal plasma, 200 nM plasmin
Method: In the clotting paradigm utilized in Example 3, plasma is mixed 1:1 with commercially formulated Actin FS. Thus, 50% (v/v) Actin FS is the maximum amount of activator that can be added while maintaining the amount of plasma constant at 50% of the incubation mixture. Since the clotting time in normal plasma is dependent on the amount of Actin FS present in the incubation mixture, these conditions would by definition lead to the shortest time to coagulation mediated by the intrinsic pathway in this paradigm. Lowering the amount of contact activator leads to a decrease in the amount of PK activated, thus reducing the amount of thrombin generated and slowing the time to coagulation (data not shown). Therefore, in order to determine whether addition of exogenous plasmin (mimicking a fibrinolytic setting) can shorten time to coagulation, the amount of Actin FS reagent added to the plasma (kept constant at 50% of the final incubation mixture) was lowered so as to attain 6.25% (final v/v).
This provides direct evidence that plasmin can have a thrombogenic effect when added to plasma in the presence of a small amount of contact activator.
The role for PK was established by evaluating deficiencies in PK, as well as by using two specific inhibitors of the enzymes. In order to determine whether blocking PK via a specific monoclonal antibody (MAb) would also be effective in inhibiting coagulation in either of the two paradigms described here, and thus provide additional validation for the invention, MAb 13G11, which has been previously characterized as being specific for PK (Veloso et al, (1987) Blood, 70, 1053-1062), was tested in each of the coagulation paradigms described in Examples 2 and 3. MAb 13G11 (obtained from GeneTex, San Antonio, Tex.) was added at a final concentration of 0.036 mg/ml in the 50% plasma—50% activator mix in each paradigm. This calculates to an approximately 2-fold molar excess over the amount of PK that would be present in the plasma—activator mixture, based on the literature reference of Veloso et al, (1987), Blood, 70, 1053-1062. Control samples were treated with 0.036 mg/ml of an isotype-matched control IgG1 (also obtained from GeneTex). When plasma was activated using 50% Actin FS (FIG. 5), MAb 13G11 prolonged time to coagulation by 100% (45% of the maximal effect obtained with PK-deficient plasma), and, when plasma was activated using 200 nM plasmin+6.25% Actin FS (FIG. 6), prolonged time to coagulation by 32% (40% of the maximal effect obtained with PK-deficient plasma).

[3] = target: T2, Plasmin (Homo sapiens, UniProt P00747); test: Specificity profile: amidolytic activity with synthetic substrate; type: biochemical; conditions: highest concentration tested 10 μM
T2 construct: agents that lead to the generation of active plasmin from plasminogen
Method: as §1

[4] = target: Thrombin (Homo sapiens, UniProt P00734); test: as above; type: biochemical; conditions: highest concentration tested 10 μM
Method: as §1

[5] = target: T3, FXIIa (Homo sapiens, UniProt P00748); test: as above; type: biochemical; conditions: highest concentration tested 10 μM
T3 sequence (P00748 373-615 limits assumed): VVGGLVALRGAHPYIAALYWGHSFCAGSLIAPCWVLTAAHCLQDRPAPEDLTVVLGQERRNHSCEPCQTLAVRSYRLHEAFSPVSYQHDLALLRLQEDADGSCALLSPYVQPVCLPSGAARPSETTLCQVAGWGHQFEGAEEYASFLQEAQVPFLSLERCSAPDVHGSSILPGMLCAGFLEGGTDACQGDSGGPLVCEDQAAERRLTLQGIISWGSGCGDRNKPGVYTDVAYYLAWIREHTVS
Method: as §1

[6] = target: FXa (Homo sapiens, UniProt P00742); test: as above; type: biochemical; conditions: highest concentration tested 10 μM
Method: as §1

[7] = target: FXIa (Homo sapiens, UniProt P03951); test: as above; type: biochemical; conditions: highest concentration tested 10 μM
Method: as §1

[8] = test system: patients with HAE; conditions: in vivo; cited from earlier work
[9] = test system: rat models of arthritis; conditions: in vivo; cited from earlier work
[10] = test system: sepsis patients; conditions: in vivo; cited from earlier work
[11] = test system: mouse model of MCAO; conditions: in vivo; cited from earlier work
[12] = test system: LPS or bacterial induced sepsis in animals; conditions: in vivo; cited from earlier work
[13] = apparent inhibition constant, 1 nM PK, pH 7.5, read-out: PK Kiapp
[14] = purified human PK, highest concentration tested 10 μM, read-out: Ki PK

T1 sequence (P03952 391-638 limits assumed): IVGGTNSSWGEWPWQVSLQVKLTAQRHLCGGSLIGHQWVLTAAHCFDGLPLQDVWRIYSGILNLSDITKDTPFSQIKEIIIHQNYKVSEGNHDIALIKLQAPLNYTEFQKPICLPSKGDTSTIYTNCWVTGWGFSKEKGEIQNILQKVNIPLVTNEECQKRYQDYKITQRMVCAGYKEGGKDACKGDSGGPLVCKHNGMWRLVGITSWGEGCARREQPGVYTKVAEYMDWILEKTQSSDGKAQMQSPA
T1 sequence (P03952 20-390 partner limits assumed): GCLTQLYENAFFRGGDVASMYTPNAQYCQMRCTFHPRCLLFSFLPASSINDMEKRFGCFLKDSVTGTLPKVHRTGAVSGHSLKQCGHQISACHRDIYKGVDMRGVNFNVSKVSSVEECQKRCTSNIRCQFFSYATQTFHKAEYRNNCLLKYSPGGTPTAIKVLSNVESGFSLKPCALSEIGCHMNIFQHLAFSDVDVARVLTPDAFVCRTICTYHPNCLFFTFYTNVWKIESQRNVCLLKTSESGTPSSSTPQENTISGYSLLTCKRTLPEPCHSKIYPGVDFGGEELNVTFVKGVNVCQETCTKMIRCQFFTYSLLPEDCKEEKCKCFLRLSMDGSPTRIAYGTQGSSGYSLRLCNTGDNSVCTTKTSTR
T2 sequence (P00747 581-810 limits assumed, species assumed): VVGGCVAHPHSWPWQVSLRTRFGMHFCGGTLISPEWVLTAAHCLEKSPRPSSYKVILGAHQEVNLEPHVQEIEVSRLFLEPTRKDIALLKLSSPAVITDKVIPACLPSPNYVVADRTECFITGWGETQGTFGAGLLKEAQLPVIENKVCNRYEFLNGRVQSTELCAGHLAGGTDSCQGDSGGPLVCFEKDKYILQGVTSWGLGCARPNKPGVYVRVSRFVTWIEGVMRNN
T2 sequence (P00747 97-580 partner limits assumed, species assumed): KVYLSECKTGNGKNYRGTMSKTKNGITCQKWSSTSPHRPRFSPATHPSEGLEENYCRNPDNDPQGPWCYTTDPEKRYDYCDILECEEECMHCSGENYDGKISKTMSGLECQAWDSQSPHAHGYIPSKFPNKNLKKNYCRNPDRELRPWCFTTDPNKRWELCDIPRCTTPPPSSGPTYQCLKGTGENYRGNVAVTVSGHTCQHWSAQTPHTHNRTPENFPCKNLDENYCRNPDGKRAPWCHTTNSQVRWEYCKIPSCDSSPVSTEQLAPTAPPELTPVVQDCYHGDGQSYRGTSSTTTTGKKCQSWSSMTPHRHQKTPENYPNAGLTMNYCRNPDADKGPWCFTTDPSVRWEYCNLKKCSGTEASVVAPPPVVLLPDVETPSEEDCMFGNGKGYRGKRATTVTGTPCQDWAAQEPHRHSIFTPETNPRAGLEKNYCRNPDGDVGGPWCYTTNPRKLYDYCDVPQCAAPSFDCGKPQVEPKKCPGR
FXa, sequence (P00742 235-488 limits assumed): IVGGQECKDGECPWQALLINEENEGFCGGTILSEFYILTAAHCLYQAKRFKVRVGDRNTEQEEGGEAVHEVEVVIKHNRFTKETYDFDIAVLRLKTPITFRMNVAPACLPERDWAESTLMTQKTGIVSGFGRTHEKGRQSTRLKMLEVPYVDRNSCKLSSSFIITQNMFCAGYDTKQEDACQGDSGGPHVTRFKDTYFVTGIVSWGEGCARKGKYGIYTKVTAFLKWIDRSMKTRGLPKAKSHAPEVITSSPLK
FXa, sequence (P00742 41-179 partner limits assumed): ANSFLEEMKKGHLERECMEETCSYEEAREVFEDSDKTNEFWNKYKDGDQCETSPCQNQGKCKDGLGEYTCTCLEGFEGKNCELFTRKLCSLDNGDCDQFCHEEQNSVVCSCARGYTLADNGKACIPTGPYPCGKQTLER
FXIa, sequence (P03951 388-625 limits assumed): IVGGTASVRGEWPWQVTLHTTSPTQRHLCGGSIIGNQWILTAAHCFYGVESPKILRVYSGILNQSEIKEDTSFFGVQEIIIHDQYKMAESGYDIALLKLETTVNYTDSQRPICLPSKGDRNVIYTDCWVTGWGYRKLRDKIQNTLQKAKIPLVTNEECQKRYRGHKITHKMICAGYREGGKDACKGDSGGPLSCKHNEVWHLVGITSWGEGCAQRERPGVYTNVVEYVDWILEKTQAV
FXIa, sequence (P03951 19-387 partner limits assumed): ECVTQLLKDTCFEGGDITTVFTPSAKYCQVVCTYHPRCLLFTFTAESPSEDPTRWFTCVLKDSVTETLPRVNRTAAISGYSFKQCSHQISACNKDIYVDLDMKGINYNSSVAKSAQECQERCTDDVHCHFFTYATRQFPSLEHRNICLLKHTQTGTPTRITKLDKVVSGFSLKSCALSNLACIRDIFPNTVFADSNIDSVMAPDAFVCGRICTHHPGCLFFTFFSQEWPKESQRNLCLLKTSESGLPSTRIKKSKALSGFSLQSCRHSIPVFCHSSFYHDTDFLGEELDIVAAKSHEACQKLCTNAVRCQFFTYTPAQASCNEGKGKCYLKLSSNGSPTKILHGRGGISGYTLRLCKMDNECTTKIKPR

With `N=C(N)c1ccc(CNC(=O)c2cnn(Cc3ccccc3)c2)cc1` [ASP-440, 1-Benzyl-1H-pyrazole-4-carboxylic acid 4-carbamimidoyl-benzylamide] the Ki [1, 13] was 310 nM, the Ki [1, 14] was 90 nM and the “prolongs time to coagulation” value ([2]; compound 10 μM) was 36%. The Ki [3] was > 10 µM, the Ki [4] was > 10 µM and the Ki [5] was > 10 µM. The Ki [6] was > 10 µM and the Ki [7] was > 10 µM.

With `Cc1cc(C(=O)NCc2ccc(C(=N)N)cc2)c(C)n1Cc1ccncc1` [ASP-465, 2,5-Dimethyl-1-pyridin-4-ylmethyl-1H-pyrrole-3-carboxylic acid 4-carbamimidoyl-benzylamide] the Ki [1, 13] was 80 nM, the Ki [1, 14] was 30 nM and the “potency (Ki) towards PK relative to ASP-440” value ([1]; ratio of Ki values) was 3 fold. For the same molecule, the “block of the plasmin-induced shortening of time to coagulation attributable to PK” value ([2]; 10 μM) was “almost completely blocks”, the “prolongs time to coagulation” value ([2]; compound 3.3 or 10 μM) was 36-75% and the “potency towards inhibiting plasmin-activated coagulation relative to ASP-440” value ([2]; same prolongation at 3.3 μM as ASP-440 at 10 μM) was 3 fold. The Ki [3] was > 10 µM, the Ki [4] was > 10 µM and the Ki [5] was > 10 µM. For the same molecule, the Ki [6] was > 10 µM and the Ki [7] was > 10 µM.

For `NC(N)=NCCC[C@@H](N)C(=O)N[C@@H](CCCN=C(N)N)C(=O)N1CCC[C@H]1C(=O)N1C[C@H](O)C[C@H]1C(=O)NCC(=O)N[C@@H](Cc1cccs1)C(=O)N[C@@H](CO)C(=O)N1Cc2ccccc2C[C@@H]1C(=O)N1[C@H](C(=O)N[C@@H](CCCN=C(N)N)C(=O)O)C[C@@H]2CCCC[C@@H]21` [Icatibant], the “treating HAE” value [8] is given as “effective”.

In the case of `Cl.NCC1CCC(C(=O)N[C@@H](Cc2ccccc2)C(=O)Nc2ccc(CC(=O)O)cc2)CC1` (stereo partly drawn) [PKSI-527], the joint swelling [9] is listed as “reduce”.

B1: C1-INH: a physiological inhibitor (protein, UniProt P05155 23-500, looked up)
Plasma protease C1 inhibitor: NPNATSSSSQDPESLQDRGEGKVATTVISKMLFVEPILEVSSLPTTNSTTNSATKITANTTDEPTTQPTTEPTTQPTIQPTQPTTQLPTDSPTQPTTGSFCPGPVTLCSDLESHSTEAVLGDALVDFSLKLYHAFSAMKKVETNMAFSPFSIASLLTQVLLGAGENTKTNLESILSYPKDFTCVHQALKGFTTKGVTSVSQIFHSPDLAIRDTFVNASRTLYSSSPRVLSNNSDANLELINTWVAKNTNNKISRLLDSLPSDTRLVLLNAIYLSAKWKTTFDPKKTRMEPFHFKNSVIKVPMMNSKKYPVAHFIDQTLKAKVGQLQLSHNLSLVILVPQNLKHRLEDMEQALSPSVFKAIMEKLEMSKFQPTLLTLPRIKVTTSQDMLSIMEKLEFFDFSYDLNLCGLTEDPDLQVSAMQHQTVLELTETGVEAAAASAISVARTLLVFEVQQPFLFVLWDQQHKFPVFMGRVYDPRA
For B1, the “clinical outcome in sepsis patients” value [10] is listed as “Clinical improvement”, the infarct size [11] is listed as “reduced” and the “vascular permeability in multiple organs and lesions” value [12] is listed as “reduce”.
